These results are taken from patent US10913781B2, “Pepducin design and use” (Tufts Medical Center, Inc., priority 2011, dated 2021).

In assay [1] the target is T1, PAR1 (Homo sapiens, UniProt P25116).
T1 sequence (P25116 22-425): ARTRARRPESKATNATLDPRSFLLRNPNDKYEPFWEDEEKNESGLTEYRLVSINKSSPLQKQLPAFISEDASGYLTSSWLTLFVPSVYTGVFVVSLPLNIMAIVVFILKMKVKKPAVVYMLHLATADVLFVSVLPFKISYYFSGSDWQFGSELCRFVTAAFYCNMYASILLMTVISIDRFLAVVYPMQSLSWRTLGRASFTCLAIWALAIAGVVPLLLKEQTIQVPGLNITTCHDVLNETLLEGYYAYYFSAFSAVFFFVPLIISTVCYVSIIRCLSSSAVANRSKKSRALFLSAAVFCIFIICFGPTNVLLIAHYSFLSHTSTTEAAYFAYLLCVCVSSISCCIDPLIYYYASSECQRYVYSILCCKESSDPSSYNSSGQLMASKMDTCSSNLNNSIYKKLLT
Description: Human neutrophil chemotaxis to TFLLRN. Format: cell-based. Details: endogenous in cells. To be noted: 10 μM TFLLRN. How it is done: (A) Human neutrophils (n=4 normal volunteers) were analyzed for surface expression of human PAR1, PAR2, and PAR4 by flow cytometry with PAR-specific antibodies. […] Chemotaxis index is the ratio of directed versus random migration over 30 min through a 5-μm pore filter.
P2pal-18S had no effect on PAR1-dependent platelet aggregation (FIG. 5A). Neither P2pal-18S nor P2pal-14GQ caused membrane disruption or apoptosis as assessed by propidium iodide uptake in SW620 cells with up to 30 μM concentrations of pepducin (FIG. 5B).

In assay [2] the target is PAR2 (Mus musculus, UniProt P55086). Briefly: λ-carrageenan/kaolin-induced mouse paw edema and inflammation (PAR2 pepducin). The format is in vivo. To be noted: 10 mg/kg s.c. Details: from tissue; host or cells: living C57BL/6 mice, hindpaw. In general terms: The carrageenan paw model is a standard test of acute inflammation.
For assay [3], the target named is T2, PAR2-homodimers (Homo sapiens, UniProt P55085, Q172R/R173Q/R36A).
T2 construct: expressed in transfected cells; host or cells: HEK
Briefly: Migration of HEK cells co-expressing PAR2-R36A and PAR2-RQ toward trypsin. The format is cell-based. The settings on record: 30 nM trypsin; 18 h. The protocol:
(§1) (A) PAR2 antagonist pepducins P2pal-18S and P2pal-14GQ inhibit calcium flux induced by PAR2 (SLIGRL) (SEQ ID NO:4) but not PAR1 (TFLLRN) (SEQ ID NO:2) agonists. SW620 cells were stably transfected with PAR1 and pretreated for 1 min with various concentrations of P2pal-18S or P2pal-14GQ and then stimulated with 30 μM PAR agonist. […] Cells were stimulated with 1 μM TFLLRN (SEQ ID NO:2), 1 μM SLIGRL (SEQ ID NO:4) or 100 μM AYPGKF (SEQ ID NO:5) and [^3H]-InsP formation measured over 30 min. (C) SW620 cells were treated with the indicated concentrations of P2pal-18S or P2pal-14GQ in the upper well of an 8-μm pore Boyden chamber and allowed to migrate for 18 h towards 10 μM of the PAR2 specific agonist SLIGRL in the lower chamber. The migration to RPMI/0.1% FBS represents random migration. (D) Migration of HEK cells transiently transfected with PAR2 (wild-type, WT), or PAR2-R36A/PAR2-RQ toward chemotactic gradients of 30 nM trypsin in the absence or presence of the indicated concentration of P2pal-18S for 18 h in a transwell apparatus ([…]). Data (n=2-4) are mean±SEM. *, P<0.05 and **, P<0.005.
To provide functional evidence that one PAR2 receptor can interact with an adjacent PAR2 receptor, a signaling dead PAR2-RQ mutant was constructed by transposing residues at Q172 and R173 located in the critical ‘DRY’ TM3 motif (FIG. 1A, the second set of sequence labeled as “QR->RQ”). […]

In assay [4] the target is T3, PAR4 (Homo sapiens, UniProt Q96RI0).
T3 sequence (Q96RI0 18-385): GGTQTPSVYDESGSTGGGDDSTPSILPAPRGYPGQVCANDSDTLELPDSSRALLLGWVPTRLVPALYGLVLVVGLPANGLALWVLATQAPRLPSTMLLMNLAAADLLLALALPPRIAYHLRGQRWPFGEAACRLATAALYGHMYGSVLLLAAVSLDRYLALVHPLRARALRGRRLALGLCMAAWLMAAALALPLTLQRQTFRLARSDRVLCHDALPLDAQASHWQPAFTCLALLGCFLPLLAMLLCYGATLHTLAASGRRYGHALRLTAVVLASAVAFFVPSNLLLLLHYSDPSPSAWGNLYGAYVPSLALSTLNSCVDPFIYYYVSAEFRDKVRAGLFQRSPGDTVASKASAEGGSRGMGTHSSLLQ
Description: [3H]-InsP formation in COS7 cells transfected with PAR4. Format: cell-based. Further details: expressed in transfected cells; host or cells: COS7. The settings on record: 100 μM AYPGKF, 30 min. How it is done: as §1

In assay [5] the target is PAR2 (Homo sapiens, UniProt P55085). Briefly: Ligand-dependent endocytosis of PAR2. Format: cell-based. From the text: Additionally, we tested whether P2pal-18S inhibited proteolytic cleavage of PAR2 or endocytosis (DeFea K A, et al. (2000) J Cell Biol 148: 1267-81; Roosterman D, et al. (2003) Am J Physiol Cell Physiol 284: C1319-29; Stalheim L, et al. (2005) Mol Pharmacol 67: 78-87). […] Therefore, the P2pal-18S i3 loop pepducin can inhibit PAR2-dependent calcium signaling, PLC-b inositol phosphate formation, and cell migration, but not proteolytic cleavage or endocytosis.

The target of assay [6] is T1, PAR1. Description: Ligand-dependent endocytosis of PAR1. The format is cell-based.

Each structure is given as a SMILES string.

Sequence of PAR2 (Mus musculus, UniProt P55086) (P55086 26-399): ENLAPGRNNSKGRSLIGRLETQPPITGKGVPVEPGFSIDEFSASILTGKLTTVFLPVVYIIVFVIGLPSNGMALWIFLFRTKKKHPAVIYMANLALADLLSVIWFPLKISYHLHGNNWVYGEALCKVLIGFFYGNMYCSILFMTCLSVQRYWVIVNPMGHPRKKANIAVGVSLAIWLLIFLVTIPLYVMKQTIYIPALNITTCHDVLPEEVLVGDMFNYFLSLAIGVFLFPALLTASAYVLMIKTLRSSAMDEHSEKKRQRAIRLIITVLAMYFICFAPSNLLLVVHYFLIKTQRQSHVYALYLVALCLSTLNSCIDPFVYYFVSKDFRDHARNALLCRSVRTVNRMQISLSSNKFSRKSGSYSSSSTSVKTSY
Sequence of PAR2 (Homo sapiens, UniProt P55085) (P55085 26-397): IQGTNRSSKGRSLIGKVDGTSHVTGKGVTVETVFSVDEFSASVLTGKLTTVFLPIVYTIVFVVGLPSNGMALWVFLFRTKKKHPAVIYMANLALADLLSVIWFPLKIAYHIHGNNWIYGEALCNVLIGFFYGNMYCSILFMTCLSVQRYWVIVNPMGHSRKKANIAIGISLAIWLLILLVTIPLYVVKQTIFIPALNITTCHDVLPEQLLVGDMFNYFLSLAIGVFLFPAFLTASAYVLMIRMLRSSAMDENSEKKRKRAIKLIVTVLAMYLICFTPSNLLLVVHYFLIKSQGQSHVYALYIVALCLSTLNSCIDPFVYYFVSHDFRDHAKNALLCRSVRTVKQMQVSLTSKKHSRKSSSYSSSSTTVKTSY
T2 sequence (P55085 26-397 R36A): as the sequence (P55085 26-397) above, with R11A counted along it
T2 sequence (P55085 37-397 Q172R/R173Q): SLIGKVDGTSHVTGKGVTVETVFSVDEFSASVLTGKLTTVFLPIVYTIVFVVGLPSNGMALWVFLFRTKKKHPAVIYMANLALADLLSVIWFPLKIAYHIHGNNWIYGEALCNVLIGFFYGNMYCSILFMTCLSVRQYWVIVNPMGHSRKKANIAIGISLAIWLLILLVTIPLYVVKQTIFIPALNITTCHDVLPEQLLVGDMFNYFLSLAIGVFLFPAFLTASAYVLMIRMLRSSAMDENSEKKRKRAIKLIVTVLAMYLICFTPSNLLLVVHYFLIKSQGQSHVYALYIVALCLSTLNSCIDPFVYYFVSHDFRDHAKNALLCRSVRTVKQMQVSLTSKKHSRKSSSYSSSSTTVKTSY

For the compound `CCCCCCCCCCCCCCCC(=O)N[C@@H](CCCNC(=N)N)C(=O)N[C@@H](CO)C(=O)N[C@@H](CO)C(=O)N[C@@H](C)C(=O)N[C@@H](CCSC)C(=O)N[C@@H](CC(=O)O)C(=O)N[C@@H](CCC(=O)O)C(=O)N[C@@H](CC(N)=O)C(=O)N[C@@H](CO)C(=O)N[C@@H](CCC(=O)O)C(=O)N[C@@H](CCCCN)C(=O)N[C@@H](CCCCN)C(=O)N[C@@H](CCCNC(=N)N)C(=O)N[C@@H](CCCCN)C(=O)N[C@@H](CO)C(=O)N[C@@H](C)C(=O)N[C@H](C(=O)N[C@@H](CCCCN)C(N)=O)[C@@H](C)CC` [P2pal-18S], in assay [1], the “Antagonist activity, neutrophil chemotaxis, PAR1” value was “no antagonist activity”. In addition, the “Effect on increase in myeloperoxidase activity in hindpaw tissue” value in assay [2] (7 h after λ-carrageenan/kaolin, WT mice) is “blocked”. Also, the “Protection against leukocytic infiltrates in the dermis of the footpads” value in assay [2] (7 h post λ-carrageenan/kaolin) came to 60%. The “Effect on swelling in PAR2-deficient mice” value in assay [2] (PAR2-deficient mice) is “did not further reduce swelling”. The “Decrease in λ-carrageenan/kaolin-induced edema” value in assay [2] (WT C57BL/6 mice) was found to be 50%. Further, the “Effect on paw edema in mast cell-deficient mice” value in assay [2] (mast cell-deficient mice, λ-carrageenan/kaolin) is given as “could not be further reduced”. The “Suppression of chemotactic migration (transactivation of PAR2-homodimers)” value in assay [3] was “complete suppression”. Moreover, the “Inhibition of InsP signaling from PAR4” value in assay [4] is “do not inhibit”. Moreover, the “Inhibition of ligand-dependent endocytosis of PAR2” value in assay [5] is reported as “did not inhibit”. Also, in assay [6], the “Inhibition of ligand-dependent endocytosis of PAR1” value is given as “did not inhibit”.
